The results in this text go back to patent US10160747B2, “Compounds and methods for kinase modulation, and indications therefor” (Plexxikon Inc., priority 2016, dated 2018).

Experiment [1] concerns MOLM-14 D835Y (endogenous FLT3 ITD and transfected FLT3 D835Y). Briefly: MOLM-14 D835Y cell proliferation assay (CellTiter-Glo). It counts as cell-based. The conditions noted are these: Homo sapiens, MOLM-14, 72 h; 3 d growth, GMean. The text has this: (§1) The FLT3 inhibitors may be assessed using the MOLM-14, Acute Myeloid Leukemia cell line that endogenously expresses FLT3 ITD or derivatives of the human FLT3 AML cell line which acquired the D835Y (activation loop) of F691L (gatekeeper) mutation after selection in escalating doses of the FLT3 Inhibitor AC220. FLT3 inhibitors may also be assessed using cells that are engineered to express mutant FLT3. For engineered cells, murine Ba/F3 cells were transfected with full-length FLT3 ITD/D835Y mutations. The parental BA/F3 cells are dependent upon Interleukin-3 (IL-3) for survival, and introduction of the FLT3 constructs rendered these cells dependent upon FLT3 kinase activity when cultured in the absences of IL-3. Engineered BA/F3 cell growth assays can be performed in either the […] of IL-3, to assess the compound inhibition of FLT3 or to detect the presence of off-target activity, respectively. Inhibitors of FLT3 kinase activity reduce or eliminate the FLT3 oncogenic signaling, resulting in reduced cell proliferation. This inhibition is measured as a function of compound concentration to assess IC50 values.
(§2) Cell lines used in proliferation assays are as follows in Table 2:
(§3) Cells were seeded at 1×10^4 cells per well of a 96 well cell culture plate in 50 μl of cell culture medium. Compounds were dissolved in DMSO, typically at a concentration of 0.5 mM and were serially diluted 1:3 for a total of eight points and added to the cells to final concentrations of […], 0.0041, 0.0014 and 0.00046 μM in 100 μl cell culture medium (final concentration 0.2% DMSO). […] The cells were incubated at 37° C., 5% CO2 for three days. CellTiter-Glo Buffer (Promega Cell Viability Assay catalog #G7573) and substrate were equilibrated to room temperature, and enzyme/substrate Recombinant Firefly Luciferase/Beetle Luciferin was reconstituted. The cell plates were equilibrated to room temperature for 30 minutes, then lysed by addition of an equivalent volume of the Celltiter-Glo Reagent. The plate was mixed for 10 minutes on a plate shaker to lyse the cells. The plates were read on a Tecan M1000 using Luminescence protocol modified to read 0.1 s per well. The luminescence reading assesses the ATP content, which correlates directly with cell number such that the reading as a function of compound concentration was used to determine the IC50 value.
Background: In ATP-based viability assays light output follows the ATP content of the culture.

The test system of experiment [2] is MOLM-14 F691L (endogenous FLT3 ITD and transfected FLT3 F691L). Briefly: MOLM-14 F691L cell proliferation assay (CellTiter-Glo). The conditions noted are these: Homo sapiens, MOLM-14, 72 h; 3 d growth, GMean. The experiment is classed as cell-based.
Excerpt: as §1, §2, §3

Experiment [3] deals with T1, BA/F3-FLT3-ITD + D835Y (Homo sapiens, UniProt P36888, D835Y, cells depend on it, form not given).
T1 sequence (P36888 with tags, fused parts or gaps INS600HVDFREYEYD/D835Y): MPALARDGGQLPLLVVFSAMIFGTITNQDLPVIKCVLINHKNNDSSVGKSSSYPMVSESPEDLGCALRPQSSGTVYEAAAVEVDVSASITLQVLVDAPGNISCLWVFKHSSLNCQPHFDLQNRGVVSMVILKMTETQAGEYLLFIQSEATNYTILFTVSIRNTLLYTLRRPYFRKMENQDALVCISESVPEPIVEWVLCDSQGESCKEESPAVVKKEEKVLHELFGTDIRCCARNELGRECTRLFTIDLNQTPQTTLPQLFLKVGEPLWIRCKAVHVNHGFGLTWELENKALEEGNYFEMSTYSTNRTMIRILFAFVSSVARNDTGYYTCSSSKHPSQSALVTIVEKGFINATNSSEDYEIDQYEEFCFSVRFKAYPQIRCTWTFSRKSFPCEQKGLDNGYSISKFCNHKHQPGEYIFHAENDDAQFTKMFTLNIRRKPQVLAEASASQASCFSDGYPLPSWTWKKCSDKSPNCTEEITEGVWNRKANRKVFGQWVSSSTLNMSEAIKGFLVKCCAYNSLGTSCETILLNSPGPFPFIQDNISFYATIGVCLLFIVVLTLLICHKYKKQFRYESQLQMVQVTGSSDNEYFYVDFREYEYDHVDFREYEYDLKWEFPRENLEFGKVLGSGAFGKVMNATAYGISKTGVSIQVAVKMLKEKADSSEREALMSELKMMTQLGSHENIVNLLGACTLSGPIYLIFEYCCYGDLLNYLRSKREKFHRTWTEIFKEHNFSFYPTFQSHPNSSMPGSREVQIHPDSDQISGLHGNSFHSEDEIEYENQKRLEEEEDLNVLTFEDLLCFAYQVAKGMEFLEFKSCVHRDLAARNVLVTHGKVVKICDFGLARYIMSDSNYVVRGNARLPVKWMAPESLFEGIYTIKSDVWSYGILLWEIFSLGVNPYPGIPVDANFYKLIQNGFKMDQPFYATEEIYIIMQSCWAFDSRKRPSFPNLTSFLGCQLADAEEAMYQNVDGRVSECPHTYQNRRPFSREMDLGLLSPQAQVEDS
Briefly: Engineered BA/F3 cell growth assay, FLT3 ITD/D835Y. It counts as cell-based, murine. The conditions noted are these: 3 d growth.
Excerpt: as §1, §2, §3
The BaF3 assays as developed used to generate the data in Tables 7 and 8 are identical and differ only in minor details in regards to vector design, not biological function. Both introduce the FLT3 gene with MV4-11 based ITD duplications and resistance mutations from an exogenous promoter (MSCV and CMV respectively) in the exact same cell line.
As a result of the expressed FLT3 protein, the IL3 factor dependent BaF3 cell clones become IL3-factor independent.
The compounds in Tables 7 and 8 were tested in an identical fashion by incubating such clones in with increasing concentrations. Inhibition of the FLT3 activity by an inhibitor results in factor dependency, which in the absence of IL3 results in cell death in the three day growth assays.

Usually IC50 stands for the midpoint of a concentration-inhibition curve. Usually GI50 stands for the concentration at which growth is held to half of that of the control. In the case of `COc1ncc(NC(=O)Cc2ccc(-c3cnc4[nH]c(-c5ccc(N6CCOCC6)nc5)cc4c3)c(F)c2)cc1C(F)(F)F` [Compound P-0193, 2-[3-fluoro-4-[2-(6-morpholino-3-pyridyl)-1H-pyrrolo[2,3-b]pyridin-5-yl]phenyl]-N-[6-methoxy-5-(trifluoromethyl)-3-pyridyl]acetamide], the IC50 in experiment [1] and in experiment [2] was 0.0001 to 10 µM throughout. For the same molecule, the GI50 in experiment [3] lay in the range of 0.0001 to 10 µM.
In the case of `Cn1cc(Nc2ncc(-c3ccc(CC(=O)Nc4ccnc(C(C)(C)C)c4)cc3)cn2)cn1` [Compound P-0112, N-(2-tert-butyl-4-pyridyl)-2-[4-[2-[(1-methylpyrazol-4-yl)amino]pyrimidin-5-yl]phenyl]acetamide], the 50% inhibitory concentration (IC50) in experiment [1] and in experiment [2] was 0.0001 to 10 µM throughout. Besides, the concentration for 50% growth inhibition (GI50) in experiment [3] fell in the range of 0.0001 to 10 µM.
In turn, `N#Cc1cc(-c2cc3cc(-c4cc(F)c(CC(=O)Nc5cc(C(F)(F)F)ccn5)cc4F)cnc3[nH]2)ccn1` [Compound P-0188, 2-[4-[2-(2-cyano-4-pyridyl)-1H-pyrrolo[2,3-b]pyridin-5-yl]-2,5-difluoro-phenyl]-N-[4-(trifluoromethyl)-2-pyridyl]acetamide] had an IC50 in experiment [1] of 0.0001 to 10 µM. For the same molecule, the 50% growth inhibitory concentration (GI50) in experiment [3] lay within 0.0001 to 10 µM.
Turning to `Cn1cc(Nc2ncc(-c3ccc(CC(=O)NCc4cc(F)ccc4Cl)cc3)cn2)cn1` [Compound P-0124, N-[(2-chloro-5-fluoro-phenyl)methyl]-2-[4-[2-[(1-methylpyrazol-4-yl)amino]pyrimidin-5-yl]phenyl]acetamide], the half-maximal inhibitory concentration (IC50) in experiment [1] and in experiment [2] was 0.0001 to 10 µM in each case. In addition, the GI50 in experiment [3] lay in the range of 0.0001 to 10 µM.
As to `O=C(Cc1ccc(-c2cnc3[nH]c(Cl)cc3c2)cc1F)Nc1ccc(C(F)(F)F)cn1` [Compound P-0041, 2-[4-(2-chloro-1H-pyrrolo[2,3-b]pyridin-5-yl)-2-fluoro-phenyl]-N-[5-(trifluoromethyl)-2-pyridyl]acetamide], the 50% growth inhibitory concentration (GI50) in experiment [3] is 0.0001 to 10 µM.
For the molecule `Cn1cc(Nc2ncc(-c3ccc(CC(=O)Nc4cc(C(C)(F)F)ccn4)c(F)c3)cn2)cn1` [Compound P-0093, N-[4-(1,1-difluoroethyl)-2-pyridyl]-2-[2-fluoro-4-[2-[(1-methylpyrazol-4-yl)amino]pyrimidin-5-yl]phenyl]acetamide], the concentration for half-maximal inhibition (IC50) in experiment [1] and in experiment [2] was 0.0001 to 10 µM each time. The GI50 in experiment [3] lay within 0.0001 to 10 µM.
Regarding `COc1cc(-c2cc3cc(-c4cc(F)c(CC(=O)Nc5cc(C(F)(F)F)ccn5)cc4F)cnc3[nH]2)ccn1` [Compound P-0189, 2-[2,5-difluoro-4-[2-(2-methoxy-4-pyridyl)-1H-pyrrolo[2,3-b]pyridin-5-yl]phenyl]-N-[4-(trifluoromethyl)-2-pyridyl]acetamide], the IC50 in experiment [1] and in experiment [2] was 0.0001 to 10 µM each time. In experiment [3], the GI50 was 0.0001 to 10 µM.
In the case of `Cn1cc(Nc2ncc(-c3ccc(CC(=O)Nc4cnc(Cl)c(Cl)c4)cc3)cn2)cn1` [Compound P-0116, N-(5,6-dichloro-3-pyridyl)-2-[4-[2-[(1-methylpyrazol-4-yl)amino]pyrimidin-5-yl]phenyl]acetamide], the IC50 in experiment [1] and in experiment [2] was 0.0001 to 10 µM in each case. For the same molecule, the GI50 in experiment [3] was 0.0001 to 10 µM.
On to `N#Cc1ccc(-c2cc3cc(-c4ccc(CC(=O)Nc5ccnc(C(F)(F)F)c5)nc4)cnc3[nH]2)cn1` [Compound P-0184, 2-[5-[2-(6-cyano-3-pyridyl)-1H-pyrrolo[2,3-b]pyridin-5-yl]-2-pyridyl]-N-[2-(trifluoromethyl)-4-pyridyl]acetamide], for which, in experiment [2], the IC50 lay within 0.0001 to 10 µM. Further, the concentration for 50% growth inhibition (GI50) in experiment [3] was 0.0001 to 10 µM.
In turn, `O=C(Cc1ccc(-c2cnc3[nH]c(-c4ccnc(N5CCOCC5)c4)cc3c2)nc1)Nc1ccnc(C(F)(F)F)c1` [Compound P-0069, 2-[6-[2-(2-morpholino-4-pyridyl)-1H-pyrrolo[2,3-b]pyridin-5-yl]-3-pyridyl]-N-[2-(trifluoromethyl)-4-pyridyl]acetamide] had a 50% inhibitory concentration (IC50) in experiment [1] of 0.0001 to 10 µM. Besides, the concentration for 50% growth inhibition (GI50) in experiment [3] is 0.0001 to 10 µM.
As for `Cc1ncc(NC(=O)Cc2ccc(-c3cnc(Nc4cn[nH]c4)nc3)c(F)c2)cc1C(F)(F)F` [Compound P-0225, 2-[3-fluoro-4-[2-(1H-pyrazol-4-ylamino)pyrimidin-5-yl]phenyl]-N-[6-methyl-5-(trifluoromethyl)-3-pyridyl]acetamide], the concentration for half-maximal inhibition (IC50) in experiment [1] and in experiment [2] was 0.0001 to 10 µM in each case. In addition, the concentration for 50% growth inhibition (GI50) in experiment [3] was in the range of 0.0001 to 10 µM.
As to `COc1cc(-c2cc3cc(-c4ccc(CC(=O)Nc5ccnc(C(F)(F)F)c5)nc4)cnc3[nH]2)ccn1` [Compound P-0187, 2-[5-[2-(2-methoxy-4-pyridyl)-1H-pyrrolo[2,3-b]pyridin-5-yl]-2-pyridyl]-N-[2-(trifluoromethyl)-4-pyridyl]acetamide], the half-maximal inhibitory concentration (IC50) in experiment [1] and in experiment [2] was 0.0001 to 10 µM each time. Further, the concentration for 50% growth inhibition (GI50) in experiment [3] lay within 0.0001 to 10 µM.
In the case of `Cn1cc(Nc2ncc(-c3ccc(CC(=O)Nc4cc(C(C)(F)F)ccn4)cc3)cn2)cn1` [Compound P-0147, N-[4-(1,1-difluoroethyl)-2-pyridyl]-2-[4-[2-[(1-methylpyrazol-4-yl)amino]pyrimidin-5-yl]phenyl]acetamide], the half-inhibitory concentration (IC50) in experiment [1] and in experiment [2] was 0.0001 to 10 µM throughout. The concentration for 50% growth inhibition (GI50) in experiment [3] lay in the range of 0.0001 to 10 µM.
In experiment [2], `Cn1cc(Nc2ncc(-c3ccc(CC(=O)NCc4ccc(Cl)cn4)cc3)cn2)cn1` [Compound P-0114, N-[(5-chloro-2-pyridyl)methyl]-2-[4-[2-[(1-methylpyrazol-4-yl)amino]pyrimidin-5-yl]phenyl]acetamide] had an IC50 of 0.0001 to 10 µM. Besides, the 50% growth inhibitory concentration (GI50) in experiment [3] is 0.0001 to 10 µM.
Consider `N#Cc1cc(-c2cc3cc(-c4ccc(CC(=O)Nc5ccnc(C(F)(F)F)c5)cn4)cnc3[nH]2)ccn1` [Compound P-0185, 2-[6-[2-(2-cyano-4-pyridyl)-1H-pyrrolo[2,3-b]pyridin-5-yl]-3-pyridyl]-N-[2-(trifluoromethyl)-4-pyridyl]acetamide], for which the GI50 in experiment [3] was in the range of 0.0001 to 10 µM.
Turning to `COc1cc(-c2cc3cc(-c4ccc(CC(=O)Nc5ccnc(C(F)(F)F)c5)cn4)cnc3[nH]2)ccn1` [Compound P-0186, 2-[6-[2-(2-methoxy-4-pyridyl)-1H-pyrrolo[2,3-b]pyridin-5-yl]-3-pyridyl]-N-[2-(trifluoromethyl)-4-pyridyl]acetamide], in experiment [1], the concentration for half-maximal inhibition (IC50) lay in the range of 0.0001 to 10 µM. Also, the GI50 in experiment [3] was 0.0001 to 10 µM.
